Each block holds one compound with its values, some of them ahead of it.
How the values were obtained:
[1] = biological target: T1, Induced myeloid leukemia cell differentiation protein Mcl-1/BH3-interacting domain death agonist (Homo sapiens, UniProt Q07820); assay: Binding affinity to Mcl-1/Bid (unknown origin) assessed as inhibition constant by fluorescence polarization assay; assay type: protein assay
[2] = biological target: T2, Bcl-xL/Bcl-2-like protein 11 (Homo sapiens, UniProt Q07817); assay: Binding affinity to Bcl-xL/Bim (unknown origin) assessed as inhibition constant by fluorescence polarization assay; assay type: protein assay
T2 sequence (Q07817 whole entry): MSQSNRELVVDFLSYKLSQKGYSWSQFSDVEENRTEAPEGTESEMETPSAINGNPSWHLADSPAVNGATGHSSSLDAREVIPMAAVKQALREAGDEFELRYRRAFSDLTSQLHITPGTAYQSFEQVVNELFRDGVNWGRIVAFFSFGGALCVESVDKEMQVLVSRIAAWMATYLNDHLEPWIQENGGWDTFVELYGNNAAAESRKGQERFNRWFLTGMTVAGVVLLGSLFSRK
T2 sequence (O43521 whole entry, further chain): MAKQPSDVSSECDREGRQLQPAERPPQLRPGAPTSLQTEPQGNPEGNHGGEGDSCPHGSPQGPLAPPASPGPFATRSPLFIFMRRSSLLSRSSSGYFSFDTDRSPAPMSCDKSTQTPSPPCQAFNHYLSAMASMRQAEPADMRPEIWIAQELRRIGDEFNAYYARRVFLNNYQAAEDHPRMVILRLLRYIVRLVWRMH

BCL2/BID [3] = biological target: T3, BCL2/BID (Homo sapiens, UniProt P10415); assay: Binding affinity to Bcl-2 /Bid (unknown origin) assessed as inhibition constant by fluorescence polarization assay; assay type: protein assay
T3 sequence (P10415 whole entry): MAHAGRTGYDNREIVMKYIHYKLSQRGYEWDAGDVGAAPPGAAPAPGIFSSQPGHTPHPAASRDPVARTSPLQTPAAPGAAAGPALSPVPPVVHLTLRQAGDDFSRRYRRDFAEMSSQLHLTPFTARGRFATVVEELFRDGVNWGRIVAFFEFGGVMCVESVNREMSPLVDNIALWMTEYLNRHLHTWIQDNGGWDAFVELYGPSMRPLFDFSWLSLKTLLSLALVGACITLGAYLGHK
T3 sequence (P55957 whole entry, further chain): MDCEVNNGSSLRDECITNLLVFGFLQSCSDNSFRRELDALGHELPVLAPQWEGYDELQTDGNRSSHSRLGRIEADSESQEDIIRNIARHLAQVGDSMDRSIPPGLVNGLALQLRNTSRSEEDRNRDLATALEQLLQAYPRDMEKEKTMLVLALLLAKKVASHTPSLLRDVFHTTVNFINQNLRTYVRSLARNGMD

[4] = biological target: T2, Bcl-xL/Bcl-2-like protein 11; assay: Inhibition of GST-tagged Bcl-xL/Bim (unknown origin) incubated for 15 mins followed by Bim addition measured after 2 hrs by ELISA method; assay type: protein assay
[5] = biological target: T4, Induced myeloid leukemia cell differentiation protein Mcl-1/Bcl-2-like protein 11 (Homo sapiens, UniProt Q07820); assay: Inhibition of GST-tagged Mcl-1/Bim (unknown origin) incubated for 15 mins followed by Bim addition measured after 2 hrs by ELISA method; assay type: protein assay
T4 sequence (Q07820 whole entry): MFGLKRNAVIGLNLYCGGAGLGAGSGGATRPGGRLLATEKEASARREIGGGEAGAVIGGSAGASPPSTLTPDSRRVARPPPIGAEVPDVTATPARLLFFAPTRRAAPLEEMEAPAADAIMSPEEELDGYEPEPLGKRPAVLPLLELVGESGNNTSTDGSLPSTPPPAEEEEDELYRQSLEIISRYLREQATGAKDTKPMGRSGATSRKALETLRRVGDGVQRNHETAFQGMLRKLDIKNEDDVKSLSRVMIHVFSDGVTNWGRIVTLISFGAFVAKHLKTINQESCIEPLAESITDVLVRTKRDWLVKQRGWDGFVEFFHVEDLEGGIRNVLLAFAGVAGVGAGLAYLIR
T4 sequence (O43521 whole entry, further chain): as the sequence (O43521 whole entry, further chain) above

BCL2/BID [6] = biological target: T3, BCL2/BID; assay: Binding affinity to Bcl-2/Bid (unknown origin) by fluorescence polarization assay; assay type: protein assay
[7] = biological target: T5, Bcl-xL/BH3-interacting domain death agonist (Homo sapiens, UniProt Q07817); assay: Binding affinity to Bcl-xL/Bid (unknown origin) by fluorescence polarization assay; assay type: protein assay
T5 sequence (Q07817 whole entry, the tested form may be a part): as the sequence (Q07817 whole entry) above
T5 sequence (P55957 whole entry, further chain, the tested form may be a part): as the sequence (P55957 whole entry, further chain) above

[8] = biological target: T1, Induced myeloid leukemia cell differentiation protein Mcl-1/BH3-interacting domain death agonist; assay: Binding affinity to Mcl-1/Bid (unknown origin) by fluorescence polarization assay; assay type: protein assay
[9] = biological target: Induced myeloid leukemia cell differentiation protein Mcl-1 (Homo sapiens, UniProt Q07820); assay: Binding affinity to wildtype Mcl-1 (unknown origin) assessed as dissociation constant by SPR analysis
Sequence of Induced myeloid leukemia cell differentiation protein Mcl-1 (Q07820 whole entry): as the sequence (Q07820 whole entry) above

[10] = Binding affinity to Mcl-1 H224A (unknown origin) assessed as dissociation constant by SPR analysis; design: species or system Homo sapiens
HeLa = assay: Cytotoxicity against human HeLa cells; assay type: functional, cell-based
K562 = assay: Cytotoxicity against human K562 cells; assay type: functional, cell-based
[11] = biological target: T4, Induced myeloid leukemia cell differentiation protein Mcl-1/Bcl-2-like protein 11; assay: Inhibition of Mcl-1/Bim (unknown origin) by ELISA method; assay type: protein assay
BCL2/BCL2L11 = BCL2/BCL2L11 (Homo sapiens, UniProt P10415); assay: Inhibition of Bcl-2/Bim (unknown origin) by ELISA method; assay type: protein assay
Sequence of BCL2/BCL2L11 (P10415 whole entry): as the sequence (P10415 whole entry) above
Sequence of BCL2/BCL2L11 (O43521 whole entry, further chain): as the sequence (O43521 whole entry, further chain) above

MCL1-BAK1 complex = MCL1-BAK1 complex (Homo sapiens, UniProt Q07820); assay: Binding affinity to Mcl-1/Bak (unknown origin) assessed as inhibition constant by fluorescence polarization assay; assay type: protein-complex assay
Sequence of MCL1-BAK1 complex (Q07820 whole entry, one chain of several): as the sequence (Q07820 whole entry) above

[12] = biological target: T2, Bcl-xL/Bcl-2-like protein 11; assay: Inhibition of Bcl-xL/Bim (unknown origin) by ELISA method; assay type: protein assay
[13] = Inhibition of Mcl-1 (172 - 327 residues)/Noxa (unknown origin) by fluorescence polarization assay; design: species or system Homo sapiens
[14] = biological target: Apoptosis regulator Bcl-2/Bcl-2 homologous antagonist/killer (Homo sapiens, UniProt P10415+Q16611); assay: Inhibition of Bcl-2/Bak (unknown origin); assay type: protein assay
Sequence of Apoptosis regulator Bcl-2/Bcl-2 homologous antagonist/killer (P10415 whole entry, one chain of several): as the sequence (P10415 whole entry) above

BCL2A1/BAK1 = biological target: T6, BCL2A1/BAK1 (Homo sapiens, UniProt Q16548+Q16611); assay: Inhibition of Bfl-1/Bak (unknown origin); assay type: protein assay
T6 sequence (Q16611 whole entry): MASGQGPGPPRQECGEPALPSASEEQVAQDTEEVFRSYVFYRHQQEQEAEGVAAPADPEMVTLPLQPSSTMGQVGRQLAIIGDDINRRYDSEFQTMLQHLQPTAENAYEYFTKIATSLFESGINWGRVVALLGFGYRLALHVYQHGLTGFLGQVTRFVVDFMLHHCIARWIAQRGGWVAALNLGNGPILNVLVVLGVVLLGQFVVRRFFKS
T6 sequence (Q16548 whole entry): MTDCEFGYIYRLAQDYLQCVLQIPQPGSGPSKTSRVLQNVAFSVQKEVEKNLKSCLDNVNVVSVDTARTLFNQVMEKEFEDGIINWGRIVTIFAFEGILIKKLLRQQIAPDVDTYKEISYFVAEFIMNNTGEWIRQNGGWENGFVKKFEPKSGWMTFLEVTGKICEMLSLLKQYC

Bcl-xL/BAK = Bcl-xL/BAK (Homo sapiens, UniProt Q07817); assay: Binding affinity to Bcl-xL/Bak (unknown origin) assessed as dissociation constant by ITC method; assay type: protein assay
Sequence of Bcl-xL/BAK (Q07817 whole entry, one chain of several, the tested form may be a part): as the sequence (Q07817 whole entry) above

[15] = biological target: T1, Induced myeloid leukemia cell differentiation protein Mcl-1/BH3-interacting domain death agonist; assay: Inhibition of Mcl-1/Bid (unknown origin) by fluorescence polarization assay; assay type: protein assay
[16] = biological target: T5, Bcl-xL/BH3-interacting domain death agonist; assay: Inhibition of Bcl-xL/Bid (unknown origin) by fluorescence polarization assay; assay type: protein assay

T1 sequence (Q07820 whole entry, the tested form may be a part): as the sequence (Q07820 whole entry) above
T1 sequence (P55957 whole entry, further chain, the tested form may be a part): as the sequence (P55957 whole entry, further chain) above

Ki [2]: 830 nM
Ki (BCL2/BID [3]): 1100 nM
Compound: O=C(Nc1ccccc1)C1=CN=c2s/c(=C\c3cn(Cc4ccccc4)c4ccccc34)c(=O)n2[C@@H]1c1ccccc1
Ki [1]: 360 nM

Ki [2]: 280 nM
Ki (BCL2/BID [3]): 940 nM
Compound: COC(=O)C1=CN=c2s/c(=C\c3cn(Cc4ccccc4)c4ccccc34)c(=O)n2[C@H]1c1ccc(C(C)=O)cc1
Ki [1]: 320 nM

IC50 [4]: 600 nM
IC50 [5]: 700 nM
Compound: COc1ccc(CSc2ccc(C(=O)c3[nH]c(Cl)c(Cl)c3-n3cc(Cl)c(Cl)c3C(=O)c3ccc(SCc4ccc(OC)cc4)cc3O)c(O)c2)cc1

Ki (BCL2/BID [6]): 2400 nM
Compound: O=C(Cn1nnnc1-c1ccccc1Oc1ccc(Cl)cc1Cl)NNC(=S)Nc1ccc([N+](=O)[O-])cc1
Ki [7]: 3000 nM
Ki [8]: 2000 nM

Kd [9]: 150 nM
Kd [10]: 130 nM
IC50 [11]: 150 nM
IC50 (BCL2/BCL2L11): 430 nM
Compound: O=C1CCC(N2C(=O)c3cccc4c(Sc5ccc(Br)cc5)ccc(c34)C2=O)C(=O)N1 (stereo not drawn)
IC50 (HeLa): 10400 nM
IC50 (K562): 7300 nM

Kd [9]: 150 nM
Kd [10]: 1130 nM
IC50 [11]: 510 nM
IC50 (BCL2/BCL2L11): 9460 nM
Compound: O=C(COc1ccc2ccccc2c1)NCCN1C(=O)c2cccc3c(Sc4ccc(Br)cc4)ccc(c23)C1=O
IC50 (HeLa): 43200 nM
IC50 (K562): 10100 nM

Ki (BCL2/BID [6]): 1900 nM
Compound: O=C(Cn1nnc(-c2ccccc2Oc2ccc(Cl)cc2Cl)n1)NNC(=S)Nc1ccc([N+](=O)[O-])cc1
Ki [7]: 3500 nM
Ki [8]: 2200 nM

IC50 [11]: 780 nM
IC50 (BCL2/BCL2L11): 540 nM
Compound: N#CC1=C(NCCC(=O)CCCCC(=O)NCCCCCNc2cccc3c2C(=O)N(C2CCC(=O)NC2=O)C3=O)c2ccc(Sc3ccc(Br)cc3)c3cccc(c23)C1=O (stereo not drawn)

Ki (MCL1-BAK1 complex): 153 nM
Compound: CC1=C[C@@H](/C=C(\C)c2ccc(C(=O)O)cc2)[C@]2(C(=O)O)C=C[C@@H](CCOC(=O)c3ccc(Oc4cccnc4)cc3)C[C@@H]2C1
Ki [1]: 106 nM

Ki [2]: 340 nM
Ki (BCL2/BID [3]): 590 nM
Compound: CCOC(=O)C1=CN=c2s/c(=C\c3cn(Cc4ccccc4)c4ccccc34)c(=O)n2[C@H]1c1cccc(C(C)=O)c1
Ki [1]: 740 nM

IC50 [11]: 1400 nM
IC50 [12]: 2300 nM
Compound: O=C1c2ccc(OS(=O)(=O)C(F)(F)F)cc2Oc2c(Cl)c(Cl)c(C(=O)c3ccc(OS(=O)(=O)C(F)(F)F)cc3O)n2-c2c1[nH]c(Cl)c2Cl

IC50 [13]: 80 nM
Compound: C=C(c1ccc(S(=O)(=O)Nc2cc(-c3ccc(C)c4ccccc34)ccc2C(=O)O)cc1)C(C)C

IC50 [11]: 11800 nM
IC50 (BCL2/BCL2L11): 4940 nM
Compound: N#CC1=C(NCCC(=O)CCCCC(=O)NCCOCCOCCNc2cccc3c2C(=O)N(C2CCC(=O)NC2=O)C3=O)c2ccc(Sc3ccc(Br)cc3)c3cccc(c23)C1=O (stereo not drawn)

Ki [2]: 1100 nM
Ki (BCL2/BID [3]): 810 nM
Compound: O=C(Nc1ccccc1)C1=CN=c2s/c(=C\c3cn(Cc4ccccc4)c4ccccc34)c(=O)n2[C@H]1c1ccccc1
Ki [1]: 2200 nM

Ki [2]: 290 nM
Ki (BCL2/BID [3]): 540 nM
Compound: CCOC(=O)C1=CN=c2s/c(=C\c3cn(Cc4ccccc4)c4ccccc34)c(=O)n2[C@@H]1c1cccc(C(C)=O)c1
Ki [1]: 290 nM

IC50 [11]: 4300 nM
IC50 [12]: 3400 nM
Compound: COC(=O)c1ccc(C(=O)c2c(Cl)c(Cl)c3n2-c2c([nH]c(Cl)c2Cl)C(=O)c2ccc(C(=O)OC)cc2O3)c(O)c1

Ki [2]: 550 nM
Ki (BCL2/BID [3]): 1000 nM
Compound: COC(=O)C1=CN=c2s/c(=C\c3cn(Cc4ccccc4)c4ccccc34)c(=O)n2[C@@H]1c1ccc(C(C)=O)cc1
Ki [1]: 420 nM

IC50 [4]: 600 nM
IC50 [5]: 700 nM
Compound: O=C(c1ccc(SCc2ccccc2)cc1O)c1[nH]c(Cl)c(Cl)c1-n1cc(Cl)c(Cl)c1C(=O)c1ccc(SCc2ccccc2)cc1O

Ki (MCL1-BAK1 complex): 7770 nM
Compound: Cc1cc(OCCCS(=O)(=O)N2CC(C(=O)O)Cc3ccccc32)cc(C)c1Cl (stereo not drawn)

IC50 (BCL2A1/BAK1): 400 nM
Compound: Cc1cc2c(C(=O)NC(C)c3ccc(Cl)cc3)c(O)c(O)cc2c(O)c1-c1c(C)cc2c(C(=O)NC(C)c3ccc(Cl)cc3)c(O)c(O)cc2c1O (stereo not drawn)
IC50 [14]: 490 nM

Ki (MCL1-BAK1 complex): 6900 nM
Kd (Bcl-xL/BAK): 3400 nM
Compound: COc1cccc(-c2ccc(/C=C3\SC(=S)N([C@@H](Cc4ccccc4)C(=O)O)C3=O)cn2)c1OC

Compound: Cc1cc2c(C(C)C)c(O)c(O)c(C=O)c2c(O)c1-c1c(C)cc2c(C(C)C)c(O)c(O)c(C=O)c2c1O [GOSSYPOL]
IC50 [15]: 1750 nM
IC50 [16]: 3030 nM

From ChEMBL document CHEMBL5113375, “Development of Mcl-1 inhibitors for cancer therapy” (Eur J Med Chem, 2021)
